In patent US8105979B2, “Active ingredient combinations with insecticidal and acaricidal properties” (Bayer CropScience AG, priority 2006, dated 2012):

Assays:
[1] = tested on: Phaedon cochleariae larvae; assay: Phaedon cochleariae larvae test (cabbage leaf dip); conditions: single active compound
Myzus persicae = Myzus persicae test (cabbage leaf dip); assay type: in vivo; conditions: single active compound

In the case of `CN(Cc1ccc(Cl)nc1)C1=CC(=O)OC1` [compound (Ia)], the “Kill in % after 6d” value ([1]; 20 ppm) is reported as 5%, the “Kill in % after 4d” value ([1]; 100 ppm) is reported as 68% and the “Kill in % after 1d” value (Myzus persicae; 0.8 ppm) is reported as 70%.
In the case of `O=C1C=C(N(Cc2ccc(Cl)nc2)C2CC2)CO1` [compound (Ib)], the “Kill in % after 1d” value (Myzus persicae; 0.8 ppm) is reported as 10% and the “Kill in % after 1d” value (Myzus persicae; 4 ppm) is reported as 75%.
With spirotetramate [reference compound] the “Kill in % after 4d” value ([1]; 20 ppm) was 5% and the “Kill in % after 1d” value (Myzus persicae; 0.8 ppm) was 5%.
With `Cc1cc(C)c(C2=C(OC(=O)CC(C)(C)C)C3(CCCC3)OC2=O)c(C)c1` [spiromesifen, reference compound] the “Kill in % after 6d” value ([1]; 100 ppm) was 10% and the “Kill in % after 1d” value (Myzus persicae; 100 ppm) was 0%.
